Source: patent US10154974B1, “Use of abscisic acid for the prevention and treatment of malaria” (The Regents of the University of California, priority 2015, dated 2018)

System: P. falciparum
Test: P. falciparum infection of A. stephensi fed a supplemented infected bloodmeal
Format: in vivo
Method: For P. falciparum infections A. stephensi were fed on a 1:1 ratio of P. falciparum-infected RBCs containing a treatment or diluent control and provided in a Hemotek Insect Feeding System (Discovery Workshops). ABA was eluted in 100% ethanol and stored at −20 C for up to 6 months. ABA stock was diluted with PBS and added into blood immediately before feeding for final concentrations of 10 nM and 100 nM. For L-NAME feeds mosquitoes were maintained on sugar cubes and water pads containing 1 mg/mL L-NAME for 72 hours before the feed and throughout the course of infection. Infection prevalence data were analyzed by Fisher's Exact Test. Oocyst intensities were analyzed by Mann-Whitney test.

Structure (SMILES): COC(=O)[C@@H](N)CCCNC(=N)N[N+](=O)[O-] [L-NAME, Nω-Nitro-L-arginine methyl ester, reference compound]
- P. falciparum infection prevalence (1 mg/ml L-NAME added to 100 nM ABA-supplemented infected bloodmeal): rescued P. falciparum infection prevalence back to control levels
- P. falciparum infection (1 mg/ml L-NAME alone): no effect
